According to patent publication US20040197268A1, “Method of imaging amyloid deposits using substituted rhodanine derivatives” (priority 1999, published 2004):

How the values were obtained:
Aβ(1-40) [1] = target: T1, Aβ(1-40) (Homo sapiens, UniProt P05067); assay: BASSR (Beta-Amyloid Self-Seeding Radioassay), inhibitors of self-seeded amyloid fibril growth; type: biochemical; details: 30 μM soluble Aβ(1-40) + 125I-labeled Aβ(1-40), pH 7.5, 37° C., 3 to 5 hours, filtration
T1 construct: Soluble Aβ(1-40) peptide (Bachem, Torrance, Calif.); purchased Bachem, Torrance, Calif
T1 sequence (P05067 672-711 limits assumed): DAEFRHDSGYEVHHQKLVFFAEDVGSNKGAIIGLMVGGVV
Description: BASSR (Beta-Amyloid Self-Seeding Radioassay)
(§1) An assay for inhibitors of self-seeded amyloid fibril growth
Assay Buffer—50 mM sodium phosphate, pH 7.5, 100 mM NaCl, 0.02% NaN3, 1 M urea (filter and store at 4° C.)
Soluble Aβ(1-40) peptide (Bachem, Torrance, Calif.)—2.2 mg/mL in deionized H2O (stored in aliquots at −20° C., keep on ice when thawed) will self-seed after 1 week storage. Typically, the solution should be stored until no lag phase is seen in the assay.
^125I-labeled Aβ(1-40)—150K-350K cpm/μL in 100% acetonitrile—0.1% trifluoroacetic acid (TFA)—1% β-mercaptoethanol (aliquots stored at −20° C.). ^125I-labeled Aβ(1-40) can be made in accordance with the procedure set forth by H. Levine, III in Neurobiol. Aging, 16:755 (1995), which is hereby incorporated by reference, or this reagent may be purchased from Amersham, Arlington Heights, Ill.
Final assay conditions: 30 μM soluble Aβ(1-40) in deionized water in assay buffer+20-50K cpm ^125I-labeled Aβ(1-40) per assay. Compound to be tested is dissolved in dimethylsulfoxide (DMSO), typically 5-50 mM stock, such that the final concentration of DMSO is <1% v/v in the assay.
Assay: Reaction mixture for 50 assays (on ice) is comprised of 0.1-0.2 μL of […] ^125I-labeled Aβ(1-40)+1 μL of soluble Aβ(1-40)+13.5 μL assay buffer per assay. The following are the amounts of the components of the reaction mixture sufficient for 50 assay wells.
1) Prepare reaction mixture above by mixing components and storing on ice.
2) Pipet 14.5 μL of reaction mixture into each of 50 wells on a polypropylene U-bottom 96-well microtiter plate on ice (Costar 3794).
(§2) 3) Add 1.7 μL of diluted compound to be tested to each well in a column of eight, including solvent control. Serial 3-fold dilutions from 1 mM (100 μM final) in assay buffer−urea=7 dilutions+zero. Each 96-well plate can therefore accommodate 11 samples+1 Congo Red control (0.039-5 μM final in 2-fold steps).
4) Seal the plate with aluminum film (Beckman 538619) and incubate for 10 minutes on ice.
5) Raise the temperature to 37° C. and incubate for 3 to 5 hours (depending on the lot of the peptide).
6) Remove the aluminum film and add 200 μL/well of ice cold assay buffer with urea, collecting the radiolabeled fibrils by vacuum filtration through 0.2 μm pore size GVWP filters in 96-well plates (Millipore MAGV N22, Bedford, Mass.). Determine the radioactivity of the filters using standard methods well-known to those skilled in the art.

[2] = target: T2, beta amyloid peptide Aβ(1-40) (Homo sapiens, UniProt P05067); assay: BAPA (Beta-Amyloid Peptide Aggregation), pH 6.0; type: biochemical; details: Aβ(1-40) 33 μM, pH 6.0, 2 to 4 hours at room temperature, filtration
T2 construct: 0.5 mg/mL AP (140) peptide in 20% HFIP+0.1 μL/assay radioiodinated ^125I Aβ(1-40)
T2 sequence (P05067 672-711 limits assumed): as above
Description: BAPA (Beta-Amyloid Peptide Aggregation)
This assay is used to provide a measure of inhibition by a compound against the aggregation behavior of the beta amyloid peptide.
The purpose of this assay is to provide a higher volume method of assaying the amount of beta amyloid aggregation using an endpoint assay based on filtration. In this assay, hexafluoroisopropanol (HFIP) is used to break down the initial amyloid peptide to a monomer state and use a concentration of 33 μM which is high enough so that aggregation will occur at pH 6.0 in several hours.
β-Amyloid Peptide Aggregation, pH 6.0 (BAPA)
In a 96-well plate (Costar 3794), we add […] 50 mM Phosphate Buffer, pH 6.0, 10 μL 0.5 mg/mL AP (140) peptide in 20% HFIP+0.1 μL/assay radioiodinated ^125I Aβ(1-40) [^125I Aβ(1-40)], and 1 μL of the compound to be tested starting at 50 mM with a concentration of DMSO <1%. Then, we incubate for 2 to 4 hours at room temperature. We stop the reaction with […] of 50 mM phosphate buffer, pH 6.0, and filter it through a 0.2 μm 96-well filter plate (Millipore MAGU N22). We wash the filter plate with 100 μL of the same phosphate buffer. Aggregation was detected on a Microbeta counter after impregnating the filters with Meltilex (1450-441) and is corrected for background.

Aβ(1-42) = target: T3, Aβ(1-42) (Homo sapiens, UniProt P05067); assay: BATYM Assay (Aβ(1-42) aggregation, Thioflavin T fluorescence); type: biochemical; details: Aβ 1-42 final concentration 100 μM, PBS pH 7.4, 37° C., 1 day, ThT fluorescence
T3 construct: Required Aβ(1-42)(California Peptide) was dried from its hexafluoroisopropanol (HFIP) stock solution; purchased California Peptide
T3 sequence (P05067 672-713 limits assumed): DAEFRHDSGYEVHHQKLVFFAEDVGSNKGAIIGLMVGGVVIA
Description: Required Aβ(1-42)(California Peptide) was dried from its hexafluoroisopropanol (HFIP) stock solution. The Aβ(1-42) was dissolved in dimethylsulfoxide (DMSO) and then mixed with phosphate buffered saline, (PBS) (pH 7.4). The mixed Aβ(1-42) solution was filtered with a 0.2 μm Omnipore membrane syringe filter (Millipore, Bedford, Mass.). The compound to be tested in DMSO (50 times concentrate) was put into each well (0.5 μL/well) of a 96-well plate. The Aβ(1-42) solution was added into each well (24.5 μL/well). The plate was centrifuged at 1,000 g for 5 minutes and incubated at 37° C. for 1 day (Aβ 1-42; final concentration 100 μM).
After incubation Thioflavin T (ThT) (30 μM) solution in glycine-NaOH buffer (pH 8.5, 50 mM) was added into each well (250 μL/well), fluorescence was measured (ex. 440/20 nm; em 485/20 nm) using a fluorescence plate reader. The inhibitory activity was calculated as the reduction of fluorescence with the following formula:
inhibition (%)={(F(Aβ)−F(Aβ+compound)}/{F(Aβ)−F(solvent+compound)}×100
The IC50s were calculated by a curve fitting program using the following equation. The data were obtained from two different experiments in triplicate.
x=concentration of tested compound (M),

Aβ(1-40) [3] = target: T1, Aβ(1-40); assay: BASST (Beta-Amyloid Self-Seeding, ThioflavinT), inhibitors of self-seeded amyloid fibril growth; type: biochemical; details: 30 μM soluble Aβ(1-40), pH 7.5, 37° C., 3 to 5 hours, thioflavin T fluorescence
Description: BASST (Beta-Amyloid Self-Seeding, ThioflavinT)
as §1
Assay Buffer—50 mM sodium phosphate, pH 7.5, 100 mM NaCl, 0.02% NaN3, 1 M urea (filter and store at 4° C.).
Soluble Aβ(1-40)—2.2 mg/mL in deionized H2O (store in aliquots at −20° C., keep on ice when thawed) will self-seed after 1 week storage. Typically, the solution should be stored until no lag phase is seen in the assay.
Final assay conditions: 30 μM soluble Aβ(1-40) in deionized water in assay buffer. Compound to be tested is dissolved in DMSO, typically 5-50 mM stock, such that the final concentration of DMSO is <1% v/v in the assay.
Assay: Reaction mixture for 50 assays (on ice) comprised of 1 μL of soluble Aβ(1-40)+13.5 μL assay buffer per assay. The following are the amounts of the components of the reaction mixture that result in each of the 50 assay wells.
1) Prepare the reaction mix above by mixing the components and storing on ice.
2) Pipet […] of reaction mixture into each of 50 wells of a polystyrene U-bottom 96-well microtiter plate (Corning 25881-96) on ice.
as §2, with “[…]” for “μL”
4) Seal the plate with aluminum film and incubate for 10 minutes on ice.
5) Raise the temperature to 37° C. and incubate for 3 to 5 hours (depends on the lot of the peptide).
6) Remove the aluminum film and add 250 μL/well of 5 μM thioflavin T (ThT) [T-3516, Sigma-Aldrich] in 50 mM glycine-NaOH, pH 8.5. Read fluorescence on a plate reader (ex=440 nm/20 nm; em=485 nm/20 nm) within 5 minutes.

| SMILES | IC50 (Aβ(1-40) [1]) | IC50 [2] | melting point | IC50 (Aβ(1-42)) | IC50 (Aβ(1-40) [3]) |
| --- | --- | --- | --- | --- | --- |
| CCCCCCN(C)c1ccc(/C=C2\SC(=S)N(CCS(=O)(=O)NC(=O)C(F)(F)F)C2=O)cc1 [Example 3, (Z) 2-{5-[4-(Hexyl-methyl-amino)-benzylidene]-4-oxo-2-thioxo-thiazolidin-3-yl}-ethanesulfonic acid trifluoroacetyl-amide] | 8 µM | > 100 µM | 158 to 162 °C | 2.24 µM | 0.3 µM |
| CCCCCCN(C)c1ccc(/C=C2\SC(=S)N(CC(=O)NC)C2=O)cc1 [Example 4, (Z) 2-{5-[4(Hexyl-methyl-amino)-benzylidene]-4-oxo-2-thioxo-thiazolidin-3-yl}-N-methyl-acetamide] | > 100 µM | 6 µM | 228 to 230 °C | 8.26 µM | 3 µM |
| CCCCCCN(C)c1ccc(/C=C2\SC(=S)N(CC(=O)NS(C)(=O)=O)C2=O)cc1 [Example 5, (Z) N-({5-[4-(Hexyl-methyl-amino)-benzylidene]4-oxo-2-thioxo-thiazolidin-3-yl}-acetyl)methanesulfonamide] | 9 µM | > 10 µM | 227 to 230 °C | 1.83 µM | 0.8 µM |
| CCCCCN(CCCCC)c1ccc(/C=C2\SC(=S)N(CC(=O)NS(C)(=O)=O)C2=O)cc1 [Example 6, (Z) N-{5-[4-(Dipentylamino-benzylidene)4-oxo-2-thioxo-thiazolidin-3-yl]-acetyl}-methanesulfonamide] | > 100 µM | 3 µM | 134 to 138 °C | 2.92 µM | 28.5 µM |
| CCCCCCN(C)c1ccc(/C=C2\SC(=S)N(CC(=O)NS(=O)(=O)C(F)(F)F)C2=O)cc1 [Example 7, (Z) C,C,C-Trifluoro-N-({5-[4-(hexyl-methyl-amino)-benzylidene]4-oxo-2-thioxo-thiazolidin-3-yl}-acetyl)methanesulfonamide] | 1 µM | 70 µM | 94 to 97 °C | 1.7 µM | 0.4 µM |
| CCCCCN(CCCCC)c1ccc(/C=C2\SC(=S)N(CC(=O)NS(=O)(=O)C(F)(F)F)C2=O)cc1 [Example 8, (Z) N-{5-[4-(Dipentylamino-benzylidene)-4-oxo-2-thioxo-thiazolidin-3-yl]-acetyl}-C,C,C-trifluoro-methanesulfonamide] | > 100 µM | 2.5 µM | 286 to 288 °C | 1.96 µM | 1 µM |
| CCCCCCN(C)c1ccc(/C=C2\SC(=S)N(CC(=O)NS(=O)(=O)c3ccccc3)C2=O)cc1 [Example 9, (Z) N-({5-[4-(Hexyl-methyl-amino)benzylidene]-4-oxo-2-thioxo-thiazolidin-3-yl}-acetyl)benzenesulfonamide] | > 100 µM | 4 µM | 173 to 177 °C | 2.15 µM | 1.75 µM |
| CCCCCCN(C)c1ccc(/C=C2\SC(=S)N(CCNS(C)(=O)=O)C2=O)cc1 [Example 10, (Z) N-(2-{5-[4-(Hexyl-methyl-amino)-benzylidene]-4-oxo-2-thioxo-thiazolin-3-yl}-ethyl)-methanesulfonamide] | > 100 µM | 8 µM | 150 to 153 °C | 2.51 µM | 1.1 µM |
| CCCCCCN(C)c1ccc(/C=C2\SC(=S)N(CCNS(=O)(=O)c3ccccc3)C2=O)cc1 [Example 11, (Z) N(2-{5-[4-(Hexyl-methyl-amino)benzylidene]-4-oxo-2-thioxo-thiazolidin-3-yl}-ethyl)-benzenesulfonamide] | > 100 µM | 25 µM | 152 to 155 °C | 2.19 µM | 9 µM |
| CCCCCCN(C)c1ccc(/C=C2\SC(=S)N(CCNS(=O)(=O)C(F)(F)F)C2=O)cc1 [Example 12, (Z) C,C,C-Trifluoro-N-(2-{5-[4-(hexyl-methyl-amino)benzyldene]-4-oxo-2-thioxo-thiazolidin-3-yl}-ethyl)methanesulfonamide] | > 100 µM | 26 µM | 170 to 173 °C | 1.64 µM | 1 µM |
| CCCCCCN(C)c1ccc(/C=C2\SC(=S)N(CCNC(=O)C(F)(F)F)C2=O)cc1 [Example 13, (Z) 2,2,2-Trifluoro-N-(2-{5-[4(hexyl-methyl-amino)benzylidene]-4-oxo-2-thioxo-thiazolidin-3-yl}-ethyl)-acetamide] | > 100 µM | 28 µM | 136 to 139 °C | 3.5 µM | 10 µM |
